≈ marks a conversion by molar mass, not a printed value. Where two headings read alike, the source gives them in different places.
Test system: HIV-1Ba-L
Assay: Anti-HIV efficacy in human monocyte/macrophages (p24 ELISA)
Type: cell-based
Protocol: SA-101A and SA-101B were tested for antiviral activity against HIV-1 virus in peripheral blood monocytes/macrophages. Monocytes/macrophages were derived from normal HIV-1 negative donors, and cultured under conditions which promote cell survival and HIV replication. Fresh human blood was obtained commercially from Biological Specialty Corporation (Colmar, Pa.). The low passage, monocytropic, clinical isolate HIV-1Ba-L (Subtype B, R5) was obtained from the NIAID AIDS Research and Reference Reagent Program. A pre-titered aliquot of HIV 1Ba-L was removed from the freezer (−80° C.) and thawed rapidly to room temperature in a biological safety cabinet immediately before use. Phytohemagglutinin (PHA-P) was obtained from Sigma (St. Louis, Mo.) and recombinant IL-2 was obtained from R&D Systems Inc. (Minneapolis, Minn.).
Compound preparation: Compounds SA-101A and SA-101B were in powder form and solubilized in DMSO prior to use. AZT (Sigma), solubilized in sterile dH2O, was used as the positive antiviral control. The compounds were tested at a 100 μg/mL high-test concentration; AZT was tested at a 1,000 ηM high-test concentration. Compound SA-101B was tested in the presence of 40% human AB serum.
Monocyte isolation and culture. Peripheral blood monocytes were isolated from screened donors sero-negative for HIV and HBV. Cells were pelleted by low speed centrifugation and re-suspended in PBS to remove contaminating platelets. The leukophoresed blood was then diluted with Dulbecco's phosphate buffered saline (PBS) and layered over of Lymphocyte Separation Medium (LSM; Cellgro® by Mediatech, Inc.; density 1.078+/−0.002 g/ml; Cat. # 85-072-CL) in a 50 mL centrifuge tube and then centrifuged. Banded PBMCs were gently aspirated from the interface and subsequently washed with PBS by low speed centrifugation. The cells were diluted to 4×10^6 cells per mL in DMEM without phenol red supplemented with 10% heat inactivated human pooled AB serum, 2 mM L-glutamine, 100 U/mL penicillin and 100 μg/mL streptomycin. Monocytes/macrophages were allowed to adhere to the interior 60 wells (100 μL/well) of a 96 well flat bottomed plate for 2 to 18 hours at 37° C., 5% CO2. The exterior wells were filled with 200 μL of sterile DPBS to serve as a humidity barrier. Following adherence of cells, the cultures were washed with sterile DPBS to remove non-adherent cells (lymphocytes and contaminating RBCs). […]
Anti-HIV efficacy evaluation in human monocyte/macrophages. […] At assay termination, virus replication was measured by collecting cell-free supernatant samples, which were analyzed for HIV p24 antigen content using a commercially available p24 ELISA assay (Coulter). […]

SMILES	IC50 (40% Human AB serum)	IC90 (40% Human AB serum)	IC50 (Human immunodeficiency virus 1, Macrophage, read-out: IC50)	IC90 (Human immunodeficiency virus 1, Macrophage, read-out: IC90)
CC(=O)OC12CC(C)C3(O)C(C=C(COC(=O)CCC(=O)O)CC4(O)C(=O)C(C)=CC43)C1C2(C)C (stereo not shown) [SA-101B, Prostratin Succinate]	0.28 µg/mL	7.29 µg/mL		
CC(=O)O[C@@]12C[C@@H](C)[C@@]3(O)[C@@H](C=C(CO)C[C@]4(O)C(=O)C(C)=C[C@@H]34)[C@@H]1C2(C)C [SA-101A, 12-deoxyphorbol 13-acetate]			0.11 µg/mL (≈ 0.282 µM)	0.28 µg/mL (≈ 0.717 µM)

Reference: US8022103B2, “Ester prodrugs of prostratin and related phorbol compounds” (Salvia Sciences, Inc., priority 2005, dated 2011)
